Results: PMC12420824, “Discovery of a selective alpha-kinase 1 inhibitor for the rare genetic disease ROSAH syndrome” (Nature Communications, 2025)

Tests used:
CK2a2 = CK2a2 (Homo sapiens, UniProt P19784); assay: HotSpot kinase assay; settings: read-out: % Enzyme Activity (relative to DMSO control), 10 uM
Excerpt: (§1) Additionally, a 10-dose dilution series of staurosporine and other enzyme-appropriate compounds were included as positive control inhibitors.

MELK = MELK (Homo sapiens, UniProt Q14680); assay: HotSpot kinase assay; settings: read-out: % Enzyme Activity (relative to DMSO control), 10 uM
[1] = system: HEK-293 cells stably overexpressing ALPK1; assay: CXCL10, TNF, CXCL8 mRNA (qPCR); settings: 30 h
AURORA C = AURORA C (Homo sapiens, UniProt Q9UQB9); assay: HotSpot kinase assay; settings: read-out: % Enzyme Activity (relative to DMSO control), 10 uM
PDK1/PDPK1 = PDK1/PDPK1 (Homo sapiens, UniProt O15530); assay: HotSpot kinase assay; settings: read-out: % Enzyme Activity (relative to DMSO control), 10 uM
PDK1/PDPK1, sequence (O15530 whole entry): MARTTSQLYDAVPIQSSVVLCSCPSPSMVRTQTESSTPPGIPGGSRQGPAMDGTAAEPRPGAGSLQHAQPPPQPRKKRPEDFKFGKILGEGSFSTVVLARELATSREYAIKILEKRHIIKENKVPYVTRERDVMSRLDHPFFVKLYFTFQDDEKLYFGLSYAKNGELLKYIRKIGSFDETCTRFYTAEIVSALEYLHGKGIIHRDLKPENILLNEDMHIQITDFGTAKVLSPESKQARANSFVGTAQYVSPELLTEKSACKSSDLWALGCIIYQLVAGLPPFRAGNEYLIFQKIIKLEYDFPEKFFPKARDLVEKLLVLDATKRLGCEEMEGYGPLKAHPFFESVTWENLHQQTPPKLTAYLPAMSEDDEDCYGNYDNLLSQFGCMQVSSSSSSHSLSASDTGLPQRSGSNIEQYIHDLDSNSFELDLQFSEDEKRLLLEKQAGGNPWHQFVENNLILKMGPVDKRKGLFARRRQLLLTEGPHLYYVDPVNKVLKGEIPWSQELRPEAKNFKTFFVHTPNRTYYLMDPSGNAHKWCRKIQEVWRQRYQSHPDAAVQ

CAMK1d = CAMK1d (Homo sapiens, UniProt Q8IU85); assay: HotSpot kinase assay; settings: read-out: % Enzyme Activity (relative to DMSO control), 10 uM
Excerpt: as §1

LIMK2 = LIMK2 (Homo sapiens, UniProt P53671); assay: HotSpot kinase assay; settings: read-out: % Enzyme Activity (relative to DMSO control), 10 uM
Excerpt: as §1

DMPK = DMPK (Homo sapiens, UniProt Q09013); assay: HotSpot kinase assay; settings: read-out: % Enzyme Activity (relative to DMSO control), 10 uM
Excerpt: as §1

c-Kit = c-Kit (Homo sapiens, UniProt P10721); assay: HotSpot kinase assay; settings: read-out: % Enzyme Activity (relative to DMSO control), 10 uM
Excerpt: as §1

TAOK2/TAO1 = biological target: T1, TAOK2/TAO1 (Homo sapiens, UniProt Q9UL54); assay: HotSpot kinase assay; settings: for IC50: ATP 10 µM
T1 sequence (Q9UL54 1-1235): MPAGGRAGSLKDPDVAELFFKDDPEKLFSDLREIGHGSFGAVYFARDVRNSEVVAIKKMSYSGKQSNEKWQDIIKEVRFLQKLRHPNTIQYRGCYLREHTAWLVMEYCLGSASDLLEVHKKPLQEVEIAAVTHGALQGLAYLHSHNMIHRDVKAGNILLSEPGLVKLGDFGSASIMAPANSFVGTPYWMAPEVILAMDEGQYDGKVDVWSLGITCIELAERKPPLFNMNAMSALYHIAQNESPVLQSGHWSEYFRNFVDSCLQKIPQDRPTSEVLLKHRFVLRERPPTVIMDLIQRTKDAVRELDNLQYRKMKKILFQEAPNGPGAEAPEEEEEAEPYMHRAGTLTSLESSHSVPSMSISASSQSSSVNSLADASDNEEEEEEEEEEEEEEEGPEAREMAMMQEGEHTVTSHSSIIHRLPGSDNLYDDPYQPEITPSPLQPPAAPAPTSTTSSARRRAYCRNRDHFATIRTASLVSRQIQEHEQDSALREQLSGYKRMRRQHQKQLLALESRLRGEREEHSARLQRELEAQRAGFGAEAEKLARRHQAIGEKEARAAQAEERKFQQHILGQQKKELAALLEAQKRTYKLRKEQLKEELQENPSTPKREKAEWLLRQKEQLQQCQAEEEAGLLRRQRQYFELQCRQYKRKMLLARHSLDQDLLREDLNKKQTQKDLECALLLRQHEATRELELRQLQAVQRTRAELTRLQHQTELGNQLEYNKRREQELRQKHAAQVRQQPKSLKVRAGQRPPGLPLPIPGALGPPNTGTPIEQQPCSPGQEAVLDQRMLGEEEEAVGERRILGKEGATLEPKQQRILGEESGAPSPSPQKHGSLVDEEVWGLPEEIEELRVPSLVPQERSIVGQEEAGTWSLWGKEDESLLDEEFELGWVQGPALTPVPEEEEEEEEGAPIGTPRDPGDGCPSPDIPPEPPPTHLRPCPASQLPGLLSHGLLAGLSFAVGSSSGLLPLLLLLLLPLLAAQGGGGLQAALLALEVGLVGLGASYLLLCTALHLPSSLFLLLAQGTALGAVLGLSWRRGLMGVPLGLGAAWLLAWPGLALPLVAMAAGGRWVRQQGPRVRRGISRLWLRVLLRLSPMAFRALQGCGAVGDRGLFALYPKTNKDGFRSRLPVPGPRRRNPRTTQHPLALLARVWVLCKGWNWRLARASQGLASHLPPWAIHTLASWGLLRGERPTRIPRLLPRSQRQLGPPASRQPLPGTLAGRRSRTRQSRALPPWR
Excerpt: as §1

CDK1/cyclin B = CDK1/cyclin B (Homo sapiens, UniProt P06493); assay: HotSpot kinase assay; settings: read-out: % Enzyme Activity (relative to DMSO control), 10 uM
CDK1/cyclin B, sequence (P06493 whole entry): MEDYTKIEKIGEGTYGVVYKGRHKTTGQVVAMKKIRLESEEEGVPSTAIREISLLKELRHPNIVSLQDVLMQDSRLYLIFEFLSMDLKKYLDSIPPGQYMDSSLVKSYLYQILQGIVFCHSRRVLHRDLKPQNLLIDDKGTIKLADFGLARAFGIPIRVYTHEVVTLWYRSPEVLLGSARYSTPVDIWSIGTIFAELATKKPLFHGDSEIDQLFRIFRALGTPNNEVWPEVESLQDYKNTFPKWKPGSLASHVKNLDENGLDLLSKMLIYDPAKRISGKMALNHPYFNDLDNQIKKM
CDK1/cyclin B, sequence (P14635 whole entry partner): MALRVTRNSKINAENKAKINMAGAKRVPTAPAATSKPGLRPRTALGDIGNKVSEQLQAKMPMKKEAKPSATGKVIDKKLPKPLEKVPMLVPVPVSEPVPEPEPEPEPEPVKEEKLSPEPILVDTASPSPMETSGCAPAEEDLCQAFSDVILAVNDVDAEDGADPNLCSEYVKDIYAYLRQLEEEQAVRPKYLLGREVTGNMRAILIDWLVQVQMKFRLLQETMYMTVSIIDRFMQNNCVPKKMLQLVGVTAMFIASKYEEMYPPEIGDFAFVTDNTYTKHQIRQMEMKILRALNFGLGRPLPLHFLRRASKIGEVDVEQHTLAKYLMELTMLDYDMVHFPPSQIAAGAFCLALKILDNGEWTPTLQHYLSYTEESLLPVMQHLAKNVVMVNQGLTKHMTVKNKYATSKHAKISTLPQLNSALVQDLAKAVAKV

SRPK1 = SRPK1 (Homo sapiens, UniProt Q96SB4); assay: HotSpot kinase assay; settings: read-out: % Enzyme Activity (relative to DMSO control), 10 uM
Excerpt: as §1

MSK2/RPS6KA4 = MSK2/RPS6KA4 (Homo sapiens, UniProt O75676); assay: HotSpot kinase assay; settings: read-out: % Enzyme Activity (relative to DMSO control), 10 uM
Excerpt: as §1

CDK2/CYCLIN E = CDK2/CYCLIN E (Homo sapiens, UniProt P24941); assay: HotSpot kinase assay; settings: read-out: % Enzyme Activity (relative to DMSO control), 10 uM
Excerpt: as §1

ROS/ROS1 = ROS/ROS1 (Homo sapiens, UniProt P08922); assay: HotSpot kinase assay; settings: read-out: % Enzyme Activity (relative to DMSO control), 10 uM
Excerpt: as §1

NIM1 = NIM1 (Homo sapiens, UniProt Q8IY84); assay: HotSpot kinase assay; settings: read-out: % Enzyme Activity (relative to DMSO control), 10 uM
NIM1, sequence (Q8IY84 whole entry): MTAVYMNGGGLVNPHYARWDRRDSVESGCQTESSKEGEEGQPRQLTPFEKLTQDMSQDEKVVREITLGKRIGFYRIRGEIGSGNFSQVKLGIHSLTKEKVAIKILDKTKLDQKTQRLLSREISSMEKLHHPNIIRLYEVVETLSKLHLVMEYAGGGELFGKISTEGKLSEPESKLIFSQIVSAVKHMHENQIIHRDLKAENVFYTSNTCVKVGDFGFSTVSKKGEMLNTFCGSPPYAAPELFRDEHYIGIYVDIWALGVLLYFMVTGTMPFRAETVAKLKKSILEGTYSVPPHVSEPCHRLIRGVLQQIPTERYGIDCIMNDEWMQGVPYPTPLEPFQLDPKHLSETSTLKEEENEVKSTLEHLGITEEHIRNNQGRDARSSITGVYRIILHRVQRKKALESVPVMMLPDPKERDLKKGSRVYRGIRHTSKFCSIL
Excerpt: as §1

KSR1 = KSR1 (Homo sapiens, UniProt Q8IVT5); assay: HotSpot kinase assay; settings: read-out: % Enzyme Activity (relative to DMSO control), 10 uM
KSR1, sequence (Q8IVT5 whole entry): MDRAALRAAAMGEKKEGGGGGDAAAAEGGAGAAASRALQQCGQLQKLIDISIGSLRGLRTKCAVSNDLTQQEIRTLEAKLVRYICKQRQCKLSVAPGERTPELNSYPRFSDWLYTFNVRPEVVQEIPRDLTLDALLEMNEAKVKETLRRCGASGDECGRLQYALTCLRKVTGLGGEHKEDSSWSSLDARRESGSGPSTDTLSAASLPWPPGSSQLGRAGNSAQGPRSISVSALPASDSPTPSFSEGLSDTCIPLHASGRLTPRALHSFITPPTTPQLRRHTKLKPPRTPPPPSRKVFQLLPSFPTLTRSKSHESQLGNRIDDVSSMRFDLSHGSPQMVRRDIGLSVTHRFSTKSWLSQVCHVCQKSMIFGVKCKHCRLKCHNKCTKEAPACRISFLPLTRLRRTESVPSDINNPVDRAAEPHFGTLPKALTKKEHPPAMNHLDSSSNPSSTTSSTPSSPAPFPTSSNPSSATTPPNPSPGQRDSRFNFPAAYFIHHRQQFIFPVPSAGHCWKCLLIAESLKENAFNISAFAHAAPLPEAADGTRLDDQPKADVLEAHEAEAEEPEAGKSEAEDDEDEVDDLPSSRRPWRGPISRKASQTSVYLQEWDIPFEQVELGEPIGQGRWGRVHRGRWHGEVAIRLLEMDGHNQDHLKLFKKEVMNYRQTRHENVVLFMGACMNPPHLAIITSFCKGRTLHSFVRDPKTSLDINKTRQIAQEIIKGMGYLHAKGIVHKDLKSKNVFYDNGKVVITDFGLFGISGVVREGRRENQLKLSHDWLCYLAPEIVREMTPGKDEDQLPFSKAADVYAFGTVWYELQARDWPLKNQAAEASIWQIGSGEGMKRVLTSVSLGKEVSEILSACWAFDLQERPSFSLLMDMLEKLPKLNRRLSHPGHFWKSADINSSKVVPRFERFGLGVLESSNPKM
Excerpt: as §1

LCK = LCK (Homo sapiens, UniProt P06239); assay: HotSpot kinase assay; settings: read-out: % Enzyme Activity (relative to DMSO control), 10 uM
Excerpt: as §1

MAST3 = MAST3 (Homo sapiens, UniProt O60307); assay: HotSpot kinase assay; settings: read-out: % Enzyme Activity (relative to DMSO control), 10 uM
Excerpt: as §1

CDK5/P25 = CDK5/P25 (Homo sapiens, UniProt Q00535); assay: HotSpot kinase assay; settings: read-out: % Enzyme Activity (relative to DMSO control), 10 uM
CDK5/P25, sequence (Q00535 whole entry): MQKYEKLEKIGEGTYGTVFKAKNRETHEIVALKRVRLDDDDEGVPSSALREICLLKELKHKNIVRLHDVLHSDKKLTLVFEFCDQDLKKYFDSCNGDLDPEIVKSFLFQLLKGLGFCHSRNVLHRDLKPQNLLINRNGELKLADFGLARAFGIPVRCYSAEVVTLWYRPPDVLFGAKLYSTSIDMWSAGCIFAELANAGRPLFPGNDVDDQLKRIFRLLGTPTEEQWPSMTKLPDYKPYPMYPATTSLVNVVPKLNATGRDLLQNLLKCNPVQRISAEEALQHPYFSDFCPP
CDK5/P25, sequence (Q15078 99-307 partner limits assumed): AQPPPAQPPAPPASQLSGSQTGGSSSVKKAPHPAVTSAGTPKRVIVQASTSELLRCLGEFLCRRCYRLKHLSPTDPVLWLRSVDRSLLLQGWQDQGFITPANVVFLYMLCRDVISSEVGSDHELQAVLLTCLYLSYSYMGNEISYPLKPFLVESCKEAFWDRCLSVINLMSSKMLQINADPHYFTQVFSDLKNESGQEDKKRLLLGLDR
Excerpt: as §1

FMS = FMS (Homo sapiens, UniProt P07333); assay: HotSpot kinase assay; settings: read-out: % Enzyme Activity (relative to DMSO control), 10 uM
FMS, sequence (P07333 20-972): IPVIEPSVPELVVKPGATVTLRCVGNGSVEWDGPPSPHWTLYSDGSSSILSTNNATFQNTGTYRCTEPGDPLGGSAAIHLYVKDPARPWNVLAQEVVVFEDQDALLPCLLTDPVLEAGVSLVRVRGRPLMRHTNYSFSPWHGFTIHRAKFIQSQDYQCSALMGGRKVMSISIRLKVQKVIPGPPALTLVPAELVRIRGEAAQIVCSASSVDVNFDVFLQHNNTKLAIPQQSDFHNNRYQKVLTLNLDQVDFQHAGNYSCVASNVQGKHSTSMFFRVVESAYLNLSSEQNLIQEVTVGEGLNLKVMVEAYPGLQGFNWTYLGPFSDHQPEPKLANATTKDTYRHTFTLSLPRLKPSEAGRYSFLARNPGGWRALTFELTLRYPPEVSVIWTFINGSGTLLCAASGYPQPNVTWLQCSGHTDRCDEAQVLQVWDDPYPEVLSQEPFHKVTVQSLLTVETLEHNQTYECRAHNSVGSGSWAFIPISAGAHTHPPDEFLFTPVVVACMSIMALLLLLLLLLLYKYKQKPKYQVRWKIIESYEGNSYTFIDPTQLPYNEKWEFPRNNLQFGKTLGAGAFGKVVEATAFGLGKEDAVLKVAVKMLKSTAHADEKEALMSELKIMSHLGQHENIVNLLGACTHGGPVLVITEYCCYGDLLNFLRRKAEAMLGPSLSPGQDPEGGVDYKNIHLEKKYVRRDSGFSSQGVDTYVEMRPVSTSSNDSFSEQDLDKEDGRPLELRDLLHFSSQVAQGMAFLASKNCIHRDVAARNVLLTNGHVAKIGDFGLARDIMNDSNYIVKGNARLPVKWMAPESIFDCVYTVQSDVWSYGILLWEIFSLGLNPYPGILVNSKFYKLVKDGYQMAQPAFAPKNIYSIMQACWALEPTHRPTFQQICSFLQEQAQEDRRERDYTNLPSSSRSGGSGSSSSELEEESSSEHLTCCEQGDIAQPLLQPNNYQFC
Excerpt: as §1

AMPK(A2/B2/G3) = AMPK(A2/B2/G3) (Homo sapiens, UniProt P54646); assay: HotSpot kinase assay; settings: read-out: % Enzyme Activity (relative to DMSO control), 10 uM
Excerpt: as §1

ITK = ITK (Homo sapiens, UniProt Q08881); assay: HotSpot kinase assay; settings: read-out: % Enzyme Activity (relative to DMSO control), 10 uM
Excerpt: as §1

AMPK(A2/B2/G1) = AMPK(A2/B2/G1) (Homo sapiens, UniProt P54646); assay: HotSpot kinase assay; settings: read-out: % Enzyme Activity (relative to DMSO control), 10 uM

MELK, sequence (Q14680 whole entry): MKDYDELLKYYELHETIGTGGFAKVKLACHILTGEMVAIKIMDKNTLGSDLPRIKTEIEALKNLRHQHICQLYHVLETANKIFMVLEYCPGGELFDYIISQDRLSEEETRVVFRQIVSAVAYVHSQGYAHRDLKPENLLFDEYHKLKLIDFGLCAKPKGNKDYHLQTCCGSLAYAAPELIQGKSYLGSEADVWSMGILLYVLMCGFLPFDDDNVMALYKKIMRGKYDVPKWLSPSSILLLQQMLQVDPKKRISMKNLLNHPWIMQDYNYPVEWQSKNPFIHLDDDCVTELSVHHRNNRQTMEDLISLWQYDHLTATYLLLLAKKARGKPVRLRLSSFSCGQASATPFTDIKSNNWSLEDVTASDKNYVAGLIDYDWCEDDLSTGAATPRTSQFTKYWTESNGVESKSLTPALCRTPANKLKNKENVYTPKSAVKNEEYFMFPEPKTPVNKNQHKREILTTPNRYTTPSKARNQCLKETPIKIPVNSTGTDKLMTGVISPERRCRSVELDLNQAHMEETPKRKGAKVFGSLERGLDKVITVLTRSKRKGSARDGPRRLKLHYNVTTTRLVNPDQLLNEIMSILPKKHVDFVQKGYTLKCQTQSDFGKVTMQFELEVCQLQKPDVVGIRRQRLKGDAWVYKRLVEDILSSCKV

`C#C[C@@](C)(c1ccc(Cl)cc1)c1csc(NC(=O)c2c(F)cc(N3CCNCC3)cc2F)n1` (stereo in doubt) [DF-003] was tested, and the remaining activity at 10 µM (CK2a2) was 128%, the remaining activity at 10 µM (MELK) was 96.6% and the “impact on basal expression of TNF, CXCL10, CXCL8” value [1] was “no impact”. For the same molecule, the remaining activity at 10 µM (AURORA C) was 91.7%, the remaining activity at 10 µM (PDK1/PDPK1) was 174% and the remaining activity at 10 µM (CAMK1d) was 39.1%. For the same molecule, the remaining activity at 10 µM (LIMK2) was 85.2%, the remaining activity at 10 µM (DMPK) was 94.6% and the remaining activity at 10 µM (c-Kit) was 67.6%. The IC50 (TAOK2/TAO1; DF-003 IC50 (nM), 10-dose) was 1290 nM, the IC50 (TAOK2/TAO1; IC50, 10-dose) was 1290 nM and the remaining activity at 10 µM (TAOK2/TAO1; read-out: % Enzyme Activity (relative to DMSO control), 10 uM) was 5.89%. For the same molecule, the remaining activity at 10 µM (CDK1/cyclin B) was 99.5%, the remaining activity at 10 µM (SRPK1) was 125% and the remaining activity at 10 µM (MSK2/RPS6KA4) was 59.7%. For the same molecule, the remaining activity at 10 µM (CDK2/CYCLIN E) was 90.1%, the remaining activity at 10 µM (ROS/ROS1) was 93.5% and the remaining activity at 10 µM (NIM1) was 52.2%. The remaining activity at 10 µM (KSR1) was 91.5%, the remaining activity at 10 µM (LCK) was 121% and the remaining activity at 10 µM (MAST3) was 82.3%. For the same molecule, the remaining activity at 10 µM (CDK5/P25) was 98.6%, the remaining activity at 10 µM (FMS) was 75.7% and the remaining activity at 10 µM (AMPK(A2/B2/G3)) was 85%. For the same molecule, the remaining activity at 10 µM (ITK) was 71.2% and the remaining activity at 10 µM (AMPK(A2/B2/G1)) was 90.2%.
